# Data from patent publication US9695155B2, “Herbicidal substituted pyrimidinyloxy benzene compounds” (E. I. DU PONT DE NEMOURS AND COMPANY, priority 2013, dated 2017).
# Legend:
# cocklebur = assay: Test E preemergence; assay type: in vivo, Xanthium strumarium; details: scale 0 to 100 (0 no effect, 100 complete control)
# Description: (§1) Seeds of plant species selected from corn (Zea mays), soybean (Glycine max), velvetleaf (Abutilon theophrasti), lambsquarters (Chenopodium album), wild poinsettia (Euphorbia heterophylla), palmer pigweed (Amaranthus palmeri), waterhemp (common waterhemp, Amaranthus rudis), surinam grass (Brachiaria decumbens), large (Lg) crabgrass (Digitaria sanguinalis), Brazilian crabgrass (Digitaria horizontalis), fall panicum (Panicum dichotomiflorum), giant foxtail (Setaria faberii), green foxtail (Setaria viridis), goosegrass (Eleusine indica), johnsongrass (Sorghum halepense), ragweed (common ragweed, Ambrosia elatior), barnyardgrass (Echinochloa crus-galli), sandbur (southern sandbur, Cenchrus echinatus), arrowleaf sida (Sida rhombifolia), Italian ryegrass (Lolium multiflorum), dayflower (Virginia (VA) dayflower, Commelina virginica), field bindweed (Convolvulus arvensis), morningglory (Ipomoea coccinea), nightshade (eastern black nightshade, Solanum ptycanthum), kochia (Kochia scoparia), yellow nutsedge (Cyperus esculentus), cocklebur (common cocklebur, Xanthium strumarium), smartweed (ladysthumb smartweed, and hairy beggarticks (Bidens pilosa), were planted into a silt loam soil and treated preemergence with test chemicals formulated in a non-phytotoxic solvent mixture which included a surfactant.
# (§2) At the same time, plants from these crop and weed species and also horseweed (Canada horseweed, Conyza canadensis), waterhemp_RES1, (ALS & Triazine resistant common waterhemp, Amaranthus rudis), and waterhemp_RES2, (ALS & HPPD resistant common waterhemp, Amaranthus rudis) were planted in pots containing Redi-Earth® planting medium (Scotts Company, 14111 Scottslawn Road, Marysville, Ohio 43041) comprising spaghnum peat moss, vermiculite, wetting agent and starter nutrients were treated with postemergence applications of test chemicals formulated in the same manner. Plants ranged in height from 2 to 18 cm for postemergence treatments (1- to 4-leaf stage). Treated plants and controls were maintained in a greenhouse for 14 to 21 days, after which time all species were compared to controls and visually evaluated. Plant response ratings, summarized in Table E, are based on a scale of 0 to 100 where 0 is no effect and 100 is complete control. A dash (-) response means no test result.
# Italian ryegrass = assay: Test E postemergence; assay type: in vivo, Lolium multiflorum
# Description: as §1, §2
# hairy beggarticks = assay: Test E postemergence; assay type: in vivo, Bidens pilosa
# Description: as §1, §2
# field violet = assay: Test D preemergence; assay type: in vivo, Viola arvensis; details: Viola arvensis, pre-emergence
# Procedure, shortened: (§3)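 Visual ratings from 0 (no effect) to 100 (complete control) relative to untreated plants were taken 7–21 days after treatment. Chemicals in a surfactant-containing solvent mixture were applied preemergence to seeds in silt loam, or postemergence to plants 2–18 cm tall (1–4 leaves) grown in a peat-based potting medium.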
# deadnettle = assay: Test D preemergence; assay type: in vivo, Lamium amplexicaule; details: Lamium amplexicaule, pre-emergence
# Procedure, shortened: as §3
# winter barley [1] = assay: Test D preemergence; assay type: in vivo, Hordeum vulgare; details: Hordeum vulgare, pre-emergence
# Procedure, shortened: as §3
# spring wheat = assay: Test D preemergence; assay type: in vivo, Triticum aestivum; details: Triticum aestivum, pre-emergence
# Procedure, shortened: as §3
# winter wheat = assay: Test D preemergence; assay type: in vivo, Triticum aestivum; details: Triticum aestivum, pre-emergence
# Procedure, shortened: as §3
# wild buckwheat = assay: Test D preemergence; assay type: in vivo, Polygonum convolvulus; details: Fallopia convolvulus, pre-emergence
# Procedure, shortened: as §3
# wild oat = assay: Test D preemergence; assay type: in vivo, Avena fatua; details: Avena fatua, pre-emergence
# Procedure, shortened: as §3
# galium = assay: Test D postemergence; assay type: in vivo, Galium aparine; details: Galium, post-emergence
# Procedure, shortened: as §3
# spring barley = assay: Test D postemergence; assay type: in vivo, Hordeum vulgare; details: Hordeum vulgare, post-emergence, Postemergence, scale 0 to 100 (0 no effect, 100 complete control), read-out: Plant response rating, Barley, Spring
# Procedure, shortened: as §3
# winter barley [2] = assay: Test D postemergence; assay type: in vivo, Hordeum vulgare; details: Hordeum vulgare, post-emergence, Postemergence, scale 0 to 100 (0 no effect, 100 complete control), read-out: Plant response rating, Barley, Winter
# Procedure, shortened: as §3
# [3] = Postemergence, 31 g ai/ha, scale 0 to 100
# [4] = Postemergence, 62 g ai/ha, scale 0 to 100
# [5] = Postemergence, 125 g ai/ha, scale 0 to 100
# [6] = Postemergence, 250 g ai/ha, scale 0 to 100
# [7] = postemergence, 16 g ai/ha, scale 0 to 100, 0 no effect, 100 complete control
smiles,measurement,setting,value
FC(F)(F)c1cnn(-c2ccccc2Oc2ncc(Cl)cn2)c1 [Compound 16],Cocklebur plant response rating,cocklebur; 16 g ai/ha,0
same,"Plant response rating, Ryegrass, Italian",Italian ryegrass; [3],0
same,"Plant response rating, Ryegrass, Italian",Italian ryegrass; [4],0
same,"Plant response rating, Ryegrass, Italian",Italian ryegrass; [5],0
same,"Plant response rating, Ryegrass, Italian",Italian ryegrass; [6],0
same,"Plant response rating, Ryegrass, Italian",Italian ryegrass; [7],0
same,"Plant response rating, Beggarticks",hairy beggarticks; [3],30
same,"Plant response rating, Beggarticks",hairy beggarticks; [4],50
same,"Plant response rating, Beggarticks",hairy beggarticks; [5],50
same,"Plant response rating, Beggarticks",hairy beggarticks; [6],60
same,"Plant response rating, Beggarticks",hairy beggarticks; [7],30
"FC(F)(F)c1cnn(-c2ccccc2Oc2ncc(Br)cn2)c1 [Compound 18, 5-bromo-2-[2-[4-(trifluoromethyl)-1H-pyrazol-1-yl]phenoxy]pyrimidine]",pest or weed control at 16 g/ha,"field violet; 16 g ai/ha, scale 0 (no effect) to 100 (complete control), read-out: Plant response rating, Field Violet",65%
same,pest or weed control at 31 g/ha,"field violet; 31 g ai/ha, scale 0-100, read-out: Plant response rating, Field Violet",70%
same,pest or weed control at 62 g/ha,"field violet; 62 g ai/ha, scale 0-100, read-out: Plant response rating, Field Violet",85%
same,pest or weed control at 125 g/ha,"field violet; 125 g ai/ha, scale 0-100, read-out: Plant response rating, Field Violet",85%
same,pest or weed control at 250 g/ha,"field violet; 250 g ai/ha, scale 0-100, read-out: Plant response rating, Field Violet",90%
same,pest or weed control at 16 g/ha,"deadnettle; 16 g ai/ha, scale 0 (no effect) to 100 (complete control), read-out: Plant response rating, Deadnettle",10%
same,pest or weed control at 31 g/ha,"deadnettle; 31 g ai/ha, scale 0-100, read-out: Plant response rating, Deadnettle",5%
same,pest or weed control at 62 g/ha,"deadnettle; 62 g ai/ha, scale 0-100, read-out: Plant response rating, Deadnettle",55%
same,pest or weed control at 125 g/ha,"deadnettle; 125 g ai/ha, scale 0-100, read-out: Plant response rating, Deadnettle",70%
same,pest or weed control at 250 g/ha,"deadnettle; 250 g ai/ha, scale 0-100, read-out: Plant response rating, Deadnettle",100%
same,plant injury at 16 g/ha,"winter barley [1]; 16 g ai/ha, scale 0 (no effect) to 100 (complete control), read-out: Plant response rating, Barley, Winter",0%
same,plant injury at 31 g/ha,"winter barley [1]; 31 g ai/ha, scale 0-100, read-out: Plant response rating, Barley, Winter",10%
same,plant injury at 62 g/ha,"winter barley [1]; 62 g ai/ha, scale 0-100, read-out: Plant response rating, Barley, Winter",15%
same,plant injury at 125 g/ha,"winter barley [1]; 125 g ai/ha, scale 0-100, read-out: Plant response rating, Barley, Winter",15%
same,plant injury at 250 g/ha,"winter barley [1]; 250 g ai/ha, scale 0-100, read-out: Plant response rating, Barley, Winter",25%
same,plant injury at 16 g/ha,"spring wheat; 16 g ai/ha, scale 0 (no effect) to 100 (complete control), read-out: Plant response rating, Wheat, Spring",0%
same,plant injury at 31 g/ha,"spring wheat; 31 g ai/ha, scale 0 (no effect) to 100 (complete control), read-out: Plant response rating, Wheat, Spring",0%
same,plant injury at 62 g/ha,"spring wheat; 62 g ai/ha, scale 0-100, read-out: Plant response rating, Wheat, Spring",0%
same,plant injury at 125 g/ha,"spring wheat; 125 g ai/ha, scale 0-100, read-out: Plant response rating, Wheat, Spring",5%
same,plant injury at 250 g/ha,"spring wheat; 250 g ai/ha, scale 0-100, read-out: Plant response rating, Wheat, Spring",15%
same,plant injury at 16 g/ha,"winter wheat; 16 g ai/ha, scale 0 (no effect) to 100 (complete control), read-out: Plant response rating, Wheat, Winter",0%
same,plant injury at 31 g/ha,"winter wheat; 31 g ai/ha, scale 0 (no effect) to 100 (complete control), read-out: Plant response rating, Wheat, Winter",0%
same,plant injury at 62 g/ha,"winter wheat; 62 g ai/ha, scale 0-100, read-out: Plant response rating, Wheat, Winter",5%
same,plant injury at 125 g/ha,"winter wheat; 125 g ai/ha, scale 0-100, read-out: Plant response rating, Wheat, Winter",5%
same,plant injury at 250 g/ha,"winter wheat; 250 g ai/ha, scale 0-100, read-out: Plant response rating, Wheat, Winter",40%
same,pest or weed control at 16 g/ha,"wild buckwheat; 16 g ai/ha, scale 0 (no effect) to 100 (complete control), read-out: Plant response rating, Buckwheat, Wild",10%
same,pest or weed control at 31 g/ha,"wild buckwheat; 31 g ai/ha, scale 0-100, read-out: Plant response rating, Buckwheat, Wild",70%
same,pest or weed control at 62 g/ha,"wild buckwheat; 62 g ai/ha, scale 0-100, read-out: Plant response rating, Buckwheat, Wild",80%
same,pest or weed control at 125 g/ha,"wild buckwheat; 125 g ai/ha, scale 0-100, read-out: Plant response rating, Buckwheat, Wild",100%
same,pest or weed control at 250 g/ha,"wild buckwheat; 250 g ai/ha, scale 0-100, read-out: Plant response rating, Buckwheat, Wild",100%
same,pest or weed control at 16 g/ha,"wild oat; 16 g ai/ha, scale 0 (no effect) to 100 (complete control), read-out: Plant response rating, Oat, Wild",0%
same,pest or weed control at 31 g/ha,"wild oat; 31 g ai/ha, scale 0-100, read-out: Plant response rating, Oat, Wild",0%
same,pest or weed control at 62 g/ha,"wild oat; 62 g ai/ha, scale 0-100, read-out: Plant response rating, Oat, Wild",0%
same,pest or weed control at 125 g/ha,"wild oat; 125 g ai/ha, scale 0-100, read-out: Plant response rating, Oat, Wild",5%
same,pest or weed control at 250 g/ha,"wild oat; 250 g ai/ha, scale 0-100, read-out: Plant response rating, Oat, Wild",30%
same,pest or weed control at 16 g/ha,"galium; 16 g ai/ha, scale 0-100, read-out: Plant response rating, Galium",40%
same,pest or weed control at 31 g/ha,"galium; 31 g ai/ha, scale 0 to 100 (0 no effect, 100 complete control), read-out: Plant response rating, Galium",60%
same,pest or weed control at 62 g/ha,"galium; 62 g ai/ha, scale 0 to 100 (0 no effect, 100 complete control), read-out: Plant response rating, Galium",70%
same,pest or weed control at 125 g/ha,"galium; 125 g ai/ha, scale 0 to 100 (0 no effect, 100 complete control), read-out: Plant response rating, Galium",65%
same,pest or weed control at 250 g/ha,"galium; 250 g ai/ha, scale 0 to 100 (0 no effect, 100 complete control), read-out: Plant response rating, Galium",70%
same,plant injury at 16 g/ha,spring barley; 16 g ai/ha,5%
same,plant injury at 31 g/ha,spring barley; 31 g ai/ha,5%
same,plant injury at 62 g/ha,spring barley; 62 g ai/ha,10%
same,plant injury at 125 g/ha,spring barley; 125 g ai/ha,15%
same,plant injury at 250 g/ha,spring barley; 250 g ai/ha,25%
same,plant injury at 16 g/ha,winter barley [2]; 16 g ai/ha,10%
same,plant injury at 31 g/ha,winter barley [2]; 31 g ai/ha,10%
same,plant injury at 62 g/ha,winter barley [2]; 62 g ai/ha,10%
same,plant injury at 125 g/ha,winter barley [2]; 125 g ai/ha,15%
same,plant injury at 250 g/ha,winter barley [2]; 250 g ai/ha,20%
same,Cocklebur plant response rating,cocklebur; 62 g ai/ha,0
